Literature values as cited in PMC12150326 (The Journal of Organic Chemistry, 2025).
“And” between values parts separate entries of the source, which are not always exact repeats. Equal entries are not always repeated. Where two headings read alike, the source gives them in different places.

Columns and labels:
Design in all cases: method as in NCI-60 database
CCRF-CEM = CCRF-CEM ref NCI-60 database, cited from earlier work
K-562 = K-562 ref NCI-60 database, cited from earlier work
MOLT-4 = MOLT-4 ref NCI-60 database, cited from earlier work
SR = SR ref NCI-60 database, cited from earlier work
HOP-92 = HOP-92 ref NCI-60 database, cited from earlier work
NCI-H460 = NCI-H460 ref NCI-60 database, cited from earlier work
SF-268 = SF-268 ref NCI-60 database, cited from earlier work
U251 = U251 ref NCI-60 database, cited from earlier work
MDA-MB-435 = MDA-MB-435 ref NCI-60 database, cited from earlier work
SK-MEL-28 = SK-MEL-28 ref NCI-60 database, cited from earlier work
SK-MEL-5 = SK-MEL-5 ref NCI-60 database, cited from earlier work
OVCAR-5 = OVCAR-5 ref NCI-60 database, cited from earlier work
NCI/ADR-RES = NCI/ADR-RES ref NCI-60 database; listed as 757/9; cited from earlier work
A498 = A498 ref NCI-60 database, cited from earlier work
CAKI-1 = CAKI-1 ref NCI-60 database, cited from earlier work
TK-10 = TK-10 ref NCI-60 database, cited from earlier work
HS 578T = HS 578T ref NCI-60 database; cited from earlier work
SNB-78 = SNB-78 ref NCI-60 database, cited from earlier work
RXF-631 = RXF-631 ref NCI-60 database, cited from earlier work

COc1cc2c(c(OC)c1OC)-c1ccc(OC)c(=O)cc1[C@@H](NC(C)=O)CC2 [Colchicine, (−)-Colchicine]
GI50 (CCRF-CEM): 20 nM
Log10GI50 (CCRF-CEM): -7.82 Molar
Log10GI50 (CCRF-CEM; listed as 757/1): -7.39 Molar
Log10LC50 (CCRF-CEM; listed as 757/9): < -8.00 Molar
Log10TGI (CCRF-CEM; listed as 757/9): < -8.00 Molar
Log10GI50 (CCRF-CEM; listed as 757/21): < -8.00 Molar and -7.93 Molar and -7.82 Molar
Log10LC50 (CCRF-CEM; listed as 757/21): > -4.00 Molar
Log10TGI (CCRF-CEM; listed as 757/21): > -4.00 Molar
GI50 (K-562): 20 nM
Log10GI50 (K-562): -7.79 Molar
Log10LC50 (K-562): > -4.00 Molar
Log10TGI (K-562): > -4.00 Molar
Log10GI50 (K-562; listed as 757/1): -7.47 Molar
Log10GI50 (K-562; listed as 757/21): < -8.00 Molar and -7.84 Molar and -7.79 Molar
GI50 (MOLT-4): 40 nM
Log10GI50 (MOLT-4): -7.45 Molar
Log10GI50 (MOLT-4; listed as 757/9): -7.60 Molar
Log10LC50 (MOLT-4; listed as 757/9): -4.90 Molar
Log10TGI (MOLT-4; listed as 757/9): < -8.00 Molar
Log10LC50 (MOLT-4; listed as 757/21): > -4.00 Molar
Log10TGI (MOLT-4; listed as 757/21): > -4.00 Molar
GI50 (SR): 30 nM
Log10GI50 (SR): -7.49 Molar
Log10LC50 (SR): > -4.00 Molar
Log10GI50 (SR; listed as 757/9): < -8.00 Molar
Log10TGI (SR; listed as 757/9): -7.47 Molar
Log10TGI (SR; listed as 757/21): > -4.00 Molar
Log10LC50 (HOP-92): > -4.00 Molar
Log10GI50 (HOP-92; listed as 757/1): -7.73 Molar
Log10TGI (HOP-92; listed as 757/1): > -4.00 Molar
Log10GI50 (HOP-92; listed as 757/21): < -8.00 Molar
GI50 (NCI-H460): 20 nM
Log10GI50 (NCI-H460): -7.65 Molar
Log10LC50 (NCI-H460): > -4.00 Molar
Log10TGI (NCI-H460; listed as 757/9): -7.12 Molar
Log10GI50 (NCI-H460; listed as 757/21): -7.62 Molar and -7.50 Molar and -7.65 Molar
GI50 (SF-268): 4680 nM
Log10GI50 (SF-268): -5.33 Molar
Log10LC50 (SF-268): > -4.00 Molar
Log10GI50 (SF-268; listed as 757/9): -7.12 Molar
Log10TGI (SF-268; listed as 757/9): -6.03 Molar
Log10TGI (SF-268; listed as 757/21): > -4.00 Molar
GI50 (U251): 30 nM
Log10GI50 (U251): -7.53 Molar
Log10GI50 (U251; listed as 757/1): -7.38 Molar
Log10LC50 (U251; listed as 757/1): > -4.00 Molar
Log10TGI (U251; listed as 757/1): > -4.00 Molar
Log10GI50 (U251; listed as 757/9): -7.47 Molar
Log10LC50 (U251; listed as 757/21): -4.31 Molar
Log10TGI (U251; listed as 757/21): -6.89 Molar and -6.80 Molar
GI50 (MDA-MB-435): < 10 nM
Log10GI50 (MDA-MB-435): < -8 Molar
Log10LC50 (MDA-MB-435; listed as 757/9): < -8.00 Molar
Log10TGI (MDA-MB-435; listed as 757/9): < -8.00 Molar
Log10GI50 (MDA-MB-435; listed as 757/21): < -8.00 Molar
Log10LC50 (MDA-MB-435; listed as 757/21): > -4.00 Molar
Log10TGI (MDA-MB-435; listed as 757/21): -7.50 Molar
Log10GI50 (SK-MEL-28; listed as 757/1): -7.02 Molar
Log10LC50 (SK-MEL-28; listed as 757/9): -4.44 Molar
Log10TGI (SK-MEL-28; listed as 757/9): -4.95 Molar
Log10LC50 (SK-MEL-28; listed as 757/21): > -4.00 Molar
Log10TGI (SK-MEL-28; listed as 757/21): > -4.00 Molar
GI50 (SK-MEL-5): < 10 nM
Log10GI50 (SK-MEL-5): < -8 Molar
Log10GI50 (SK-MEL-5; listed as 757/1): -7.61 Molar
Log10TGI (SK-MEL-5; listed as 757/9): -7.58 Molar
Log10GI50 (SK-MEL-5; listed as 757/21): < -8.00 Molar
Log10LC50 (SK-MEL-5; listed as 757/21): > -4.00 Molar
GI50 (OVCAR-5): 76 nM
Log10GI50 (OVCAR-5): -7.12 Molar
Log10LC50 (OVCAR-5): > -4.00 Molar
Log10GI50 (OVCAR-5; listed as 757/1): -4.48 Molar
Log10GI50 (NCI/ADR-RES): -6.59 Molar and -6.31 Molar
Log10LC50 (A498): > -4.00 Molar
Log10GI50 (A498; listed as 757/1): -6.96 Molar
Log10TGI (A498; listed as 757/1): > -4.00 Molar
Log10TGI (A498; listed as 757/9): -5.50 Molar
Log10GI50 (A498; listed as 757/21): -7.68 Molar and -7.40 Molar
Log10LC50 (CAKI-1): > -4.00 Molar
Log10GI50 (CAKI-1; listed as 757/1): < -8.00 Molar
Log10TGI (CAKI-1; listed as 757/1): > -4.00 Molar
Log10GI50 (CAKI-1; listed as 757/9): -6.57 Molar
Log10TGI (CAKI-1; listed as 757/9): -6.69 Molar
GI50 (TK-10): > 100000 nM
Log10GI50 (TK-10): > -4 Molar
Log10LC50 (TK-10): > -4.00 Molar
Log10TGI (TK-10): > -4.00 Molar
Log10GI50 (TK-10; listed as 757/1): > -4.00 Molar
Log10GI50 (TK-10; listed as 757/9): -7.50 Molar
Log10GI50 (TK-10; listed as 757/21): -4.66 Molar
Log10LC50 (HS 578T): > -4.00 Molar
Log10LC50 (SNB-78): > -4.00 Molar
Log10TGI (SNB-78): > -4.00 Molar
Log10GI50 (SNB-78; listed as 757/21): -7.88 Molar and < -8.00 Molar
Log10LC50 (RXF-631): > -4.00 Molar
Log10TGI (RXF-631): > -4.00 Molar
Log10GI50 (RXF-631; listed as 757/21): -7.45 Molar
